Read-outs that look alike come from different tables or passages of the source.
Tests used:
[1] = molecular target: LXR α LBD protein (Homo sapiens (Human), UniProt Q13133); assay: LXR α radioligand binding assay (SPA, competition with [3H]TO901317); details: read-out: LXRα Binding Ki
[2] = molecular target: LXR β LBD protein (Homo sapiens (Human), UniProt P55055); assay: biochemical; type: binding; details: read-out: LXRβ Binding Ki
[3] = molecular target: T1, Gal4 DNA binding domain fused to the LBD of LXRα in HEK293 cells (Homo sapiens (Human), UniProt Q13133); assay: LXR luciferase transcriptional reporter gene assay, agonist mode, LXRα; type: cell-based
T1 sequence (Q13133 209-447): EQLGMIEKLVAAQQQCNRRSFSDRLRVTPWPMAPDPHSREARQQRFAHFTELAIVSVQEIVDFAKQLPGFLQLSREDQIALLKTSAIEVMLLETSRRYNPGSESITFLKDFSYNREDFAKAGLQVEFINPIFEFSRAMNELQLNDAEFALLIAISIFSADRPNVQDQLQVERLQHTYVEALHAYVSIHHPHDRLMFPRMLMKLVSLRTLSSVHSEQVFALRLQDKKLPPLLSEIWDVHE

[4] = molecular target: T2, Gal4 DNA binding domain fused to the LBD of LXRβ in HEK293 cells (Homo sapiens (Human), UniProt P55055); assay: cell-based
T2 sequence (P55055 222-460 limits assumed): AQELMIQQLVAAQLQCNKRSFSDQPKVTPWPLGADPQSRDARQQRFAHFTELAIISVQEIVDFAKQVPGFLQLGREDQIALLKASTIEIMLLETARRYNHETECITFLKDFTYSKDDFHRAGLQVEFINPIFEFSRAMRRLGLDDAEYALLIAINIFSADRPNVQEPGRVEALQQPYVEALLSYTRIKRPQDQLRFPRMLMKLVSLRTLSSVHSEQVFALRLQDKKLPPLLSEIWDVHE

[5] = molecular target: T1, Gal4 DNA binding domain fused to the LBD of LXRα in HEK293 cells; assay: LXR luciferase transcriptional reporter gene assay, antagonist mode (200 nM T0901317), LXRα; type: cell-based
[6] = molecular target: T2, Gal4 DNA binding domain fused to the LBD of LXRβ in HEK293 cells; assay: cell-based; type: cell-based
[7] = agonist mode, read-out: Cell LXRβ EC50
[8] = antagonist mode, 200 nM T0901317, HEK293 reporter gene assay
[9] = antagonist mode, 200 nM T0901317, HEK293 reporter gene assay, read-out: Cell LXRβ IC50
[10] = Biological Test Example 2, agonist mode
[11] = Biological Test Example 2, agonist mode, read-out: Cell LXRβ EC50
[12] = agonist mode, read-out: Cell LXRα EC50
[13] = antagonist mode, 200 nM T0901317, HEK293 reporter gene assay, read-out: Cell LXRα IC50

LXR β LBD protein, sequence (P55055 222-460 limits assumed): as above
LXR α LBD protein, sequence (Q13133 209-447): as the sequence (Q13133 209-447) above

Row | Compound | Ki [1] [nM] | Ki [2] [nM] | EC50 ([3]; read-out: Cell LXRα EC50) [nM] | Cell LXRα efficacy [5] | IC50 ([5]; read-out: Cell LXRα IC50) [nM] | Cell LXRβ efficacy [6, 8] | Cell LXRα efficacy [3] | EC50 [3, 12] [nM] | EC50 [4] [nM] | IC50 [5, 13] [nM] | IC50 [6] [nM] | other results
1 | CS(=O)(=O)c1cccc(N2CCN(C[C@H]3CC[C@@](C)(O)CC3)[C@@H](c3ccccc3)C2)c1 (single isomer, unassigned) [48-5] | 1270 | 123 | > 20000 | 1169 (61) % | 1170 | 93% | – | – | – | – | – | EC50 [4, 7]: > 20000 nM; IC50 [6, 9]: 118 nM
2 | NS(=O)(=O)c1cccc(N2CCN(C[C@H]3CC[C@@H](C(F)F)CC3)[C@@H](c3ccccc3)C2)c1 (single isomer, unassigned) [48-23] | 94 | 11 | 319 | 4955 (123) % | 4960 | 91% | 319 (43) % | – | – | – | – | Cell LXRβ efficacy ([4]; agonist mode): 14%; EC50 [4, 7]: 97 nM; IC50 [6, 9]: 408 nM
3 | CS(=O)(=O)c1cccc(N2CCN(C[C@@H]3C[C@@H]4[C@H](C3)C4(F)F)[C@@H](c3ccccc3)C2)c1 (single isomer, unassigned) [48-66] | 804 | – | 2520 | 7360 (100) % | 7360 | 81% | 2518 (40) % | – | – | – | – | Ki ([2]; Biological Test Example 1): 103 nM; Cell LXRβ efficacy [4, 10]: 20%; EC50 [4, 11]: 716 nM; IC50 [6, 9]: 824 nM
4 | CS(=O)(=O)c1cccc(N2CCN(C[C@H]3CC[C@]4(CC3)CC4(F)F)[C@@H](c3ccccc3)C2)c1 (single isomer, unassigned) [48-71] | 50 | – | 236 | – | > 10000 | 54% | 236 (57) % | – | – | – | – | Ki ([2]; Biological Test Example 1): 10 nM; Cell LXRβ efficacy [4, 10]: 25%; EC50 [4, 11]: 75 nM; IC50 [6, 9]: 163 nM
5 | CC[C@@H](O)c1cnc(N2CCN(c3ccc(F)c(S(C)(=O)=O)c3)C[C@H]2C(C)C)nc1C(F)(F)F (single isomer, unassigned) [Cpd No 12-7] | 82 | 9 | – | – | – | 104 (87) % | 862 (25) % | 862 | 49 | 686 | 104 | Cell LXRβ efficacy ([4]; agonist mode): 49 (15) %
6 | CNS(=O)(=O)c1cc(N2CCN(c3ncc(C(C)(C)O)c(C(F)(F)F)n3)[C@H](C(C)C)C2)ccc1F [10-3, (R)-2-fluoro-5-(4-(5-(2-hydroxypropan-2-yl)-4-(trifluoromethyl)pyrimidin-2-yl)-3-isopropylpiperazin-1-yl)-N-methylbenzenesulfonamide] | 135 | 5 | – | 2003 (83) % | – | – | 646 (35) % | 646 | 69 | 2000 | 242 | Cell LXRβ efficacy ([4]; agonist mode): 69 (24) %
7 | CC(C)[C@@H]1CN(c2ccc(F)c(S(C)(=O)=O)c2)CCN1c1ncc(CN(C)C(C)(C)C)c(C(F)(F)F)n1 [15-6, (R)-N-((2-(4-(4-fluoro-3-(methylsulfonyl)phenyl)-2-isopropylpiperazin-1-yl)-4-(trifluoromethyl)pyrimidin-5-yl)methyl)-N,2-dimethylpropan-2-amine] | > 3330 | 360 | – | 6215 (98) % | – | 1325 (91) % | – | > 20000 | > 20000 | 6220 | 1320 | –
8 | CCCCN(C)C(=O)c1cnc(N2CCN(c3ccc(F)c(S(C)(=O)=O)c3)C[C@H]2C(C)C)nc1C(F)(F)F [17-10, (R)-N-butyl-2-(4-(4-fluoro-3-(methylsulfonyl)phenyl)-2-isopropylpiperazin-1-yl)-N-methyl-4-(trifluoromethyl)pyrimidine-5-carboxamide] | 558 | 65 | – | 501 (94) % | – | 100 (89) % | – | > 20000 | > 20000 | 501 | 100 | –
9 | CC(C)[C@@H]1CN(c2ccc(F)c(S(C)(=O)=O)c2)CCN1c1ncc(C(=O)N(C)CCCO)c(C(F)(F)F)n1 [17-11, (R)-2-(4-(4-fluoro-3-(methylsulfonyl)phenyl)-2-isopropylpiperazin-1-yl)-N-(3-hydroxypropyl)-N-methyl-4-(trifluoromethyl)pyrimidine-5-carboxamide] | 4880 | 548 | – | – | – | 875 (90) % | – | > 20000 | > 20000 | 3460 | 875 | –
10 | CCOC(=O)CN(C)C(=O)c1cnc(N2CCN(c3ccc(F)c(S(C)(=O)=O)c3)C[C@H]2C(C)C)nc1C(F)(F)F [17-16, ethyl (R)-N-(2-(4-(4-fluoro-3-(methylsulfonyl)phenyl)-2-isopropylpiperazin-1-yl)-4-(trifluoromethyl)pyrimidine-5-carbonyl)-N-methylglycinate] | 2170 | 194 | – | 1530 (99) % | – | – | – | > 20000 | > 20000 | 1530 | 361 | Cell LXRβ efficacy [6]: 361 (86) %
11 | CC(C)[C@@H]1CN(c2ccc(F)c(S(C)(=O)=O)c2)CCN1c1ncc(C(=O)N(C)CCC(C)(C)O)c(C(F)(F)F)n1 [17-17, (R)-2-(4-(4-fluoro-3-(methylsulfonyl)phenyl)-2-isopropylpiperazin-1-yl)-N-(3-hydroxy-3-methylbutyl)-N-methyl-4-(trifluoromethyl)pyrimidine-5-carboxamide] | > 3330 | 618 | – | – | – | 684 (93) % | – | > 20000 | > 20000 | 2610 | 684 | –
12 | Cc1ccc(N2CCN(c3cccc(S(C)(=O)=O)c3)C[C@H]2C(C)C)nc1C1CC1 [40-2, (R)-1-(6-cyclopropyl-5-methylpyridin-2-yl)-2-isopropyl-4-(3-(methylsulfonyl)phenyl)piperazine] | 173 | 14 | 3500 | 792 (80) % | 792 | – | 3505 (14) % | – | > 20000 | – | 146 | Cell LXRβ efficacy [6]: 146 (93) %
13 | Cc1ccc(C2CC2)nc1N1CCN(c2cccc(S(C)(=O)=O)c2)C[C@H]1C(C)C [40-3, (R)-1-(6-cyclopropyl-3-methylpyridin-2-yl)-2-isopropyl-4-(3-(methylsulfonyl)phenyl)piperazine] | 724 | 61 | > 20000 | 2454 (90) % | 2450 | 288 (88) % | – | – | > 20000 | – | 288 | –
14 | CC(C)[C@@H]1CN(c2cccc(S(C)(=O)=O)c2)CCN1c1nccc(OC(F)F)n1 [44-2, (R)-4-(difluoromethoxy)-2-(2-isopropyl-4-(3-(methylsulfonyl)phenyl)piperazin-1-yl)pyrimidine] | 520 | 35 | – | – | – | – | 2594 (24) % | – | 205 | – | 177 | EC50 [3]: 2590 nM; Cell LXRβ efficacy [4]: 205 (10) %; IC50 [5]: 1470 nM; Cell LXRα efficacy [5, 8]: 105%; Cell LXRβ efficacy [6]: 177 (103) %
15 | CS(=O)(=O)c1cccc(N2CCN(C[C@H]3C[C@@H]4[C@H](C3)C4(F)F)[C@@H](c3ccccc3)C2)c1 [48-64, (S)-1-(((1R,3r,5S)-6,6-difluorobicyclo[3.1.0]hexan-3-yl)methyl)-4-(3-(methylsulfonyl)phenyl)-2-phenylpiperazine] | 397 | – | 1820 | 4272 (104) % | 4270 | 85% | 1817 (38) % | – | – | – | – | Ki ([2]; Biological Test Example 1): 38 nM; Cell LXRβ efficacy [4, 10]: 11%; EC50 [4, 11]: 411 nM; IC50 [6, 9]: 288 nM
16 | CC(C)[C@@H]1CN(c2cc(F)c(CO)c(S(C)(=O)=O)c2)CCN1c1ncc(CO)c(C(F)(F)F)n1 [Cpd No 11-6, (R)-(2-fluoro-4-(4-(5-(hydroxymethyl)-4-(trifluoromethyl)pyrimidin-2-yl)-3-isopropylpiperazin-1-yl)-6-(methylsulfonyl)phenyl)methanol] | 71 | 2 | – | – | – | 1355 (65) % | 216 (58) % | 216 | 16 | 3860 | 1360 | Cell LXRβ efficacy ([4]; agonist mode): 16 (46) %
17 | CC(C)[C@@H]1CN(c2ccc(F)c(S(C)(=O)=O)c2)CCN1c1ncc(C(N)=O)c(C(F)(F)F)n1 [Cpd No 17-2, (R)-2-(4-(4-fluoro-3-(methylsulfonyl)phenyl)-2-isopropylpiperazin-1-yl)-4-(trifluoromethyl)pyrimidine-5-carboxamide] | 876 | 58 | – | 3715 (97) % | – | – | 1789 (17) % | 1790 | 91 | 3720 | 439 | Cell LXRβ efficacy [4]: 91 (10) %; Cell LXRβ efficacy [6]: 439 (97) %
